Reference: patent US12281084B2, “Acetyl-CoA synthetase 2 (ACSS2) inhibitors and methods using same” (The Wistar Institute, priority 2019, dated 2025)
“Also recorded” adds a separate entry of the source.

Legend:
BT474 cells = assay: 13C2-acetate tracing in BT474 cells; format: cell-based, human
Experimental: (§1) All metabolomic experiments were performed in serum-like modified Eagle's medium (SMEM). SMEM contains 54 different nutrients that are found in the bloodstream at concentrations that are physiologically relevant to humans. SMEM was supplemented with 10% or 1% fetal bovine serum (FBS; Life Technologies). Cells were grown in normoxia (atmospheric oxygen) or hypoxia (1% oxygen) while being incubated in uniformly labeled ^13C2-acetate (0.100 mM; Cambridge Isotope Laboratories). Lengths of incubation are described in the figure legends. For extraction of metabolites from cultured cells, SMEM medium was aspirated and cells were washed once in ice-cold PBS. Metabolites were extracted by adding a solution of LC-MS grade methanol/acetonitrile/water (5:3:2) to the well. Plates were incubated at 4° C. for 5 minutes on a rocker and then the extraction solution was collected. The metabolite extract was cleared by centrifugation at 15,000×g for 10 minutes at 4° C. Supernatants were transferred to LC-MS silanized glass vials with PTFE caps and either run immediately on the LC-MS or stored at −80° C. […]
(§2) LC-MS analysis was performed on a Q Exactive Hybrid Quadrupole-Orbitrap HF-X MS (ThermoFisher Scientific) equipped with a HESI II probe and coupled to a Vanquish Horizon UHPLC system (ThermoFisher Scientific). […] Samples were analyzed in full MS scan with polarity switching at scan range 65 to 975 m/z; 120,000 resolution; automated gain control (AGC) target of 1E6; and maximum injection time (max IT) of 100 milliseconds. Identification and quantitation of metabolites was performed using an annotated compound library and TraceFinder 4.1 software. […]
The ^13C2-acetate tracer studies were repeated in BT474 and MDA-MB-468 cells and polar metabolites were isolated in order to analyze carbon-13 labeling of the cytosolic metabolite UDP-N-acetylglucosamine (UDP-GlcNAc) and the mitochondrial metabolite citrate. Citrate is a readout of ACSS1 and ACSS3 activity in the cells since they are the mitochondria localized AcCoA synthetase family members (FIG. 11A). […]

sgACSS2 Brpkp110 tumors = assay: sgACSS2 (Acss2 knockout) Brpkp110 tumor xenograft growth in NSG mice; format: in vivo, mouse; conditions: tumors lacking ACSS2 expression (FIG. 5F)
Excerpt: CRISPR-Cas9 pools of Brpkp110 and A7C11 were generated using single guide RNAs against exon 1 in mouse Acss2. Cas9 and guide RNAs were introduced into Brpkp110 and A7C11 cell by lentiviral infection. Briefly, HEK293T cells were transfected (Lipofectamine 2000) with psPAX2, pVSV-G, and pLentiCRISPRV2-blast containing a single guide RNA cloned into the BsmBI site (GE Healthcare). Transduced pools of Brkp110 and A7C11 cells were selected using blasticidin S.
For BT474 mouse xenograft studies 5-6 week old female NSG […] were anesthetized and one 17β-estradiol 60 day release pellet (Innovative Research of America Cat. No. SE-121) was injected subcutaneously via 10 gauge precision trochar into the lateral side of the neck between the ear and shoulder. 24 hours later 10^5 BT474 luciferase positive cells in 100 μl PBS:matrigel (growth factor reduced) were injected subcutaneously into the hind limb. For A7C11 and Brpkp110 xenografts, 5×10^5 cells in 100 μl PBS:Matrigel (growth factor reduced Corning Cat. No. 356231) were subcutaneously injected into the hindlimb of 5-6 week old female NSG mice […]. […] Tumors were measured thrice weekly via caliper measurement and tumor volume calculated as (L×W^2)/2 (where L is the longer of the 2 measurements). […]

BT474 tumors = assay: BT474 tumor xenograft growth in NSG mice; format: in vivo, mouse
Experimental: For BT474 mouse xenograft studies 5-6 week old female NSG […] were anesthetized and one 17β-estradiol 60 day release pellet (Innovative Research of America Cat. No. SE-121) was injected subcutaneously via 10 gauge precision trochar into the lateral side of the neck between the ear and shoulder. 24 hours later 10^5 BT474 luciferase positive cells in 100 μl PBS:matrigel (growth factor reduced) were injected subcutaneously into the hind limb. For A7C11 and Brpkp110 xenografts, 5×10^5 cells in 100 μl PBS:Matrigel (growth factor reduced Corning Cat. No. 356231) were subcutaneously injected into the hindlimb of 5-6 week old female NSG mice […]. Following tumor establishment in all groups, mice were randomized and treated intraperitoneally (IP) daily with vehicle (10% DMSO, 10% absolute ethanol, 20% solutol, 60% water containing 0.5% Tween20) or 100 mg/kg VY-3-135 as indicated in the figure legend. Tumors were measured thrice weekly via caliper measurement and tumor volume calculated as (L×W^2)/2 (where L is the longer of the 2 measurements). […]
Mice bearing luciferase positive tumors were injected IP with 150 mg/kg sterile filtered D-luciferin potassium salt (Gold Bio Cat. No. LUCK-1G). […] Images were analyzed using Living Image Software (Perkin Elmer). […]

SKBr3 cells = assay: 13C2-acetate tracing in SKBr3 cells; format: cell-based, human; conditions: 100 μM 13C2-acetate, 24 hr, N10 or H1 (FIG. 2B)
Experimental: as §1, with “well.” for “well. Plates were incubated at 4° C. for 5 minutes on a rocker and then the extraction solution was collected. The metabolite extract was cleared by centrifugation at 15,000×g for 10 minutes at 4° C. Supernatants were transferred to LC-MS silanized glass vials with PTFE caps and either run immediately on the LC-MS or stored at −80° C.”
as §2

CCn1c(C(O)(c2ccccc2)c2ccccc2)nc2ccc(C(=O)NC[C@@H](C)O)cc21 [VY-3-135, (R)-1-ethyl-2-(hydroxydiphenylmethyl)-N-(2-hydroxypropyl)-1H-benzo[d]imidazole-6-carboxamide]
incorporation of 13C2-acetate into UDP-GlcNAc (BT474 cells; BT474 cells (FIG. 11C)): able to block incorporation of ^13C2-acetate into UDP-GlcNAc to nearly the levels of unlabeled cells | incorporation of 13C2-acetate into citrate (BT474 cells; BT474 cells, H1, 24 hr (FIG. 2D), readout of ACSS1 and ACSS3): did not decrease incorporation of ^13C2-acetate into citrate | use of acetate as a substrate for fatty acid synthesis (13C2-acetate into palmitate) (BT474 cells; BT474 cells, hypoxia and low lipid medium, 24 hours (FIG. 2C)): markedly inhibits the use of acetate as a substrate for fatty acid synthesis at low nanomolar concentrations | sgACSS2 Brpkp110 tumor growth (sgACSS2 Brpkp110 tumors): did not further affect the growth of Brpkp110 sgACSS2 tumors; also recorded: no further effect on tumor growth | tumor palpability / regression at end of regimen (BT474 tumors; BT474 luciferase tumors, VY-3-135 treated group): two of the tumors in VY-3-135 treated group were not palpable by the end of the regimen, with one tumor fully regressing | BT474 tumor growth (BT474 tumors; VY-3-135 100 mg/kg IP daily, two weeks of treatment (FIG. 6A), 100 mg/kg): causes a significant decrease in BT474+luciferase tumor growth; also recorded: completely abrogated tumor growth | fatty acid synthesis from acetate (13C2-acetate labeling of palmitate) (SKBr3 cells): completely blocked fatty acid synthesis from acetate
